Results: patent US6579886B2, “Selective iglur5 receptor antagonists” (Eli Lilly and Company, priority 1999, dated 2003)
Structures can show the parent of a compound that is named as a salt. One block for each compound: values may come before it.

Tests used:
[1] = test system: neurogenic dural protein extravasation; assay: Animal model of dural protein extravasation (trigeminal ganglion stimulation, Evans Blue); type: in vivo, rats or guinea pigs; conditions: given orally; approximated from dose-response curve
Experimental: Methods, 81(1,2) 19-24 (1998). For example, the following animal model is employed to determine the ability of each of the compounds of formula I to inhibit protein extravasation, an exemplary functional assay of the neuronal mechanism of migraine.
Harlan Sprague-Dawley rats (225-325 g) or guinea pigs from Charles River Laboratories (225-325 g) are anesthetized with sodium pentobarbital intraperitoneally (65 mg/kg or 45 mg/kg respectively) and placed in a stereotaxic frame (David Kopf Instruments) with the incisor bar set at −3.5 mm for rats or −4.0 mm for guinea pigs. Following a midline sagital scalp incision, two pairs of bilateral holes are drilled through the skull (6 mm posterially, 2.0 and 4.0 mm laterally in rats; 4 mm posteriorly and 3.2 and 5.2 mm laterally in guinea pigs, all coordinates referenced to bregma). […]
A fluorescence microscope (Zeiss) equipped with a grating monchromator and a spectrophotometer is used to quantify the amount of Evans Blue dye in each sample. An excitation wavelength of approximately 535 nm is utilized and the emission intensity at 600 nm was determined. […] This facilitates the computer-controlled movement of the stage with fluorescence measurements at 25 points ([…]) on each dural sample. The mean and standard deviation of the measurements are determined by the computer. […]

[2] = target: T1, iGluR5 receptor (relative to iGluR2 AMPA receptor subtype) (Homo sapiens, UniProt P39086); assay: iGluR5 antagonist binding affinity profile: displacement of 3[H] kainate (iGluR5) versus 3[H] AMPA (iGluR2) in stably transfected HEK293 cells; conditions: HEK293 cells stably transfected with human iGluR receptors; 3[H] kainate vs 3[H] AMPA displacement
T1 construct: expressed in transfected cells; host or cells: HEK293 cells, stably transfected
Text: To establish that the iGluR5 receptor subtype is mediating neurogenic protein extravasation, a functional characteristic of migraine, the binding affinity of the compounds of formula I to the iGluR5 receptor is first measured using standard methods. For example, the activity of compounds acting at the iGluR5 receptor can be determined by radiolabelled ligand binding studies at the cloned and expressed human iGluR5 receptor (Korczak et al., 1994, Recept. Channels 3; 41-49), and by whole cell voltage clamp electrophysiological recordings of currents in acutely isolated rat dorsal root ganglion neurons (Bleakman et al., 1996, Mol. Pharmacol. 49; 581-585). The selectivity of compounds acting at the iGluR5 receptor subtype can then be determined by comparing antagonist activity at the iGluR5 receptor with antagonist activity at other AMPA and kainate receptors. […] AMPA by increasing concentrations of antagonist is measured on iGluR1, iGluR2, iGluR3, and iGluR4 expressing cells, while displacement of ^3[H] kainate (KA) is measured on iGluR5, iGluR6, iGluR7, and KA2-expressing cells. As an indicia of selectivity, the ratio of binding affinity to the iGluR2 AMPA receptor subtype, versus the binding affinity to iGluR5 kainate receptor subtype, is also determined.

T1 sequence (P39086 31-918): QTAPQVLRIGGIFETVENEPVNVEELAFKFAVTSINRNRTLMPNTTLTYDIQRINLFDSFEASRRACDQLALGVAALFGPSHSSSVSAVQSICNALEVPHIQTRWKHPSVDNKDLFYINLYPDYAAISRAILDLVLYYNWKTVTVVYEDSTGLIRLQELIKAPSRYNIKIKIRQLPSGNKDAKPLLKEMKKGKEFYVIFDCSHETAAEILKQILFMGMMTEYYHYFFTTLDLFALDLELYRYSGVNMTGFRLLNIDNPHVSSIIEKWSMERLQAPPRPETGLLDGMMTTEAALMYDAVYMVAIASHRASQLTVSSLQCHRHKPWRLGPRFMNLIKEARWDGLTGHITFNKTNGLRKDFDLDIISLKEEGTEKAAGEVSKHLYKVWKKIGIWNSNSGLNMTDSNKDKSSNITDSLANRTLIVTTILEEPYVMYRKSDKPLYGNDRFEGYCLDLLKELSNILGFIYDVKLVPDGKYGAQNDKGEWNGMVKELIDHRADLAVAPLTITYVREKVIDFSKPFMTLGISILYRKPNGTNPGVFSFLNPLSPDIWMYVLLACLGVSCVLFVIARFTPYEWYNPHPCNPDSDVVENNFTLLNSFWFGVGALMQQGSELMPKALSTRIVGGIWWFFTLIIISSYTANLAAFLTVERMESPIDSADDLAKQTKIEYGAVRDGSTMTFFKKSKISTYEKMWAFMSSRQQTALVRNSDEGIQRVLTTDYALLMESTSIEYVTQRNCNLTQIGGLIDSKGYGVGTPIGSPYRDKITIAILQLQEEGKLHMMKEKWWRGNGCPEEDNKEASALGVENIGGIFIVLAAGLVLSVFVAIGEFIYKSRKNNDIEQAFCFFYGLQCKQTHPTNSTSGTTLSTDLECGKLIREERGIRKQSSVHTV

melting point: 99 to 101 °C
Compound: CCOC(=O)c1ncn(C[C@H]2CC[C@H]3CN[C@H](C(=O)OCC)C[C@H]3C2)c1C(=O)OCC (as salt: hydrochloride) [Example 11, [3S 4aR,6S,8aR]-Ethyl 6-{[4,5-Bis(ethoxycarbonyl)-1H-imidazol-1-yl]methyl}1 2,3,4,4a,5,6,7,8,8a-decahydroisoquinoline-3-carboxylate Dihydrochloride]

Compound: CCOC(=O)c1cn(C[C@H]2CC[C@H]3CN[C@H](C(=O)OCC)C[C@H]3C2)cn1 [Example 3, [3S,4aR,6S,8aR]-Ethyl-6-((4-ethoxycarbonyl-1H-imidazol-1-yl)methyl)-1,2,3,4,4a,5,6,7,8,8a-decahydroisoquinoline-3-carboxylate]
ID100 (dose that inhibits the extravasation by 100%) [1]: 0.0003 µg/kg

selectivity: ratio of binding affinity for the iGluR5 receptor over the iGluR2 receptor [2]: 5 fold
Compound: O=C(O)[C@@H]1C[C@H]2C[C@@H](Cc3ccccc3-c3nnn[nH]3)CC[C@H]2CN1
